Test [1] deals with T1, IP3 binding domain (IBD, amino acid residues 1-885) of human IP3 receptor type 1 (Homo sapiens, UniProt Q14643).
T1 construct: glutathione S-transferase (GST), joined by linker Leu-Val-Pro-Arg-Gly-Ser (N); His tag, joined by linker Leu-Val-Pro-Arg-Gly-Ser (C); made in house; host or cells: Escherichia coli BL-21 (DE3), vector pGEX2T
As to the kind of experiment: Surface plasmon resonance competitive binding assay on Compound 1-immobilized sensor tip. The settings on record: for Kd: SPR competitive assay, Compound 2b re-assayed at IBD 1.76 nM; for Kd / binding of IBD to a Compound 1-immobilized tip: IBD 52.8 nM; for binding of IBD to a Compound 1-immobilized tip: competitive assay, FIG. 1B; for affinity relative to that of IP3: ratio of affinity to IBD versus IP3 (Table 1); for non-specific binding to the IP3 receptor in the competitive assay: IBD 1.76 nM, FIG. 1C. The source says:
(1) Expression and Purification of Human IP3 Receptor Type 1
The IP3 binding domain (IBD, amino acid residues 1-885, Mignery, G. A., et al., EMBO J., 9, 3893, 1990) of human IP3 receptor type 1 (Yamada, N., et al., Biochem. J., 302, 781, 1994) was subcloned in pGEX2T (Amersham Pharmacia) for expression in bacteria. The N-terminus of IBD was fused to glutathione S-transferase using a linker sequence Leu-Val-Pro-Arg-Gly-Ser, whilst the C-terminus of IBD was labeled at His using a linker sequence Leu-Val-Pro-Arg-Gly-Ser. The protein was expressed in Escherichia coli BL-21 (DE3), and a recombinant protein was purified by using a resin on which Ni-NTA was immobilized (Amersham Pharmacia) and a HiTrap NHS-activated affinity column (Amersham Pharmacia) to which Compound 1 was bound. The purity of protein was calculated as 22% based on the result from SDS-PAGE.
(2) Measurement of Surface Plasmon Resonance
Surface plasmon resonance (SPR) was measured by using BIAcore 2000 (Amersham Pharmacia). After activation with NHS and EDC, 10 mM of Compound 1 in 100 mM borate buffer (pH 8.5) was bound to the surface of CM5 sensor tip, and inactivated with ethanolamine. In order to determine dissociation constants of IP3, Compound 1, Compound 2a, and Compound 2b, IBD purified beforehand was dissolved in a mobile phase buffer (10 mM HEPES, 150 mM NaCl, 3.4 mM EDTA and 0.005% Tween20, pH 7.4) together with each of the compounds. After each sample was injected, the tip surface was regenerated with 100 mM NaOH.
IBD bound to the tip in a concentration-dependent manner, however, non-specific binding with BSA (or glutathione S-transferase) was not observed. […] In order to determine affinity of IP3, Compound 1, Compound 2a and Compound 2b to IBD, a competitive assay was performed as follows. IBD (52.8 nM) was mixed with each of the aforementioned compounds at various concentrations. When the mixture was introduced onto the tip, a compound that competed with Compound 1 was […] (FIG. 1B). SPR obtained from this assay was applied to the equation to calculate dissociation constant (Kd) of each compound.
(3) Calculation of Dissociation Constants
For calculation of Kd of each compound, the resulting data plotted in FIGS. 1B and 1C were applied to the formula: 100[1−[X+Y+Kd−{X^2+2X (Kd−Y)+(Kd+Y)^2}^½]/2Y] wherein X and Y are a concentration of each compound and IBD concentration, respectively. […] Therefore, the IBD concentration was lowered to 1.76 nM, and the competitive assay for Compound 2b was performed again (FIG. 1C). The binding assay was carried out under a light condition and under a dark condition to verify that the binding was not affected by light.

A further test has as its system IP3 receptor. As to the kind of experiment: Denaturation of the IP3 receptor by light irradiation: IP3-induced Ca2+ releasing activity in smooth muscle tissue specimen. The settings on record: guinea pig portal vein smooth muscle, 1 μM compound, 1 μM IP3, FIG. 2C. How it is done:
(1) Preparation of a Tissue Specimen
A strip of smooth muscle tissue prepared from a portal vein of male guinea pigs (weight 200-300 g) was fixed on a stainless steel wire to prepare a tissue specimen.
(2) Measurement of Ca^2+ Releasing Activity
The above specimen was incubated at 35° C. for 3.5 hours in a 40 μM solution of mag-fura-2 AM (Molecular Probes) as a Ca^2+ fluorescent indicator to have the mag-fura-2 AM taken up by the specimen. Subsequently, the specimen was incubated at 35° C. for 1.5 to 2 hours in a 40-60 μM solution of β-escin as a surfactant to remove the mag-fura-2 AM present other than in intracellular organelles.
The specimen was inserted into a glass capillary, and then initial change of fluorescence intensity ratio (fluorescence intensity at Ex. 340 nm, Em.480 nm/fluorescence intensity at Ex. 375 nm, Em. 480 nm, i.e., releasing rate), at addition of various solutions to the specimen, was fitted to an exponential curve to obtain a value as Ca^2+ releasing activity. As the fluorescence photometer, CAF-110 (JASCO) was used. […]
The tissue specimen prepared in the above (1) was added with 1 μM IP3, and its Ca^2+ releasing activity was measured (before irradiation). This specimen was removed from a fluorescence photometer after the measurement, and the inside of a capillary was filled with 1 μM solution of Compound 2b. […]

T1 sequence (Q14643 1-885 isoform Q14643-4): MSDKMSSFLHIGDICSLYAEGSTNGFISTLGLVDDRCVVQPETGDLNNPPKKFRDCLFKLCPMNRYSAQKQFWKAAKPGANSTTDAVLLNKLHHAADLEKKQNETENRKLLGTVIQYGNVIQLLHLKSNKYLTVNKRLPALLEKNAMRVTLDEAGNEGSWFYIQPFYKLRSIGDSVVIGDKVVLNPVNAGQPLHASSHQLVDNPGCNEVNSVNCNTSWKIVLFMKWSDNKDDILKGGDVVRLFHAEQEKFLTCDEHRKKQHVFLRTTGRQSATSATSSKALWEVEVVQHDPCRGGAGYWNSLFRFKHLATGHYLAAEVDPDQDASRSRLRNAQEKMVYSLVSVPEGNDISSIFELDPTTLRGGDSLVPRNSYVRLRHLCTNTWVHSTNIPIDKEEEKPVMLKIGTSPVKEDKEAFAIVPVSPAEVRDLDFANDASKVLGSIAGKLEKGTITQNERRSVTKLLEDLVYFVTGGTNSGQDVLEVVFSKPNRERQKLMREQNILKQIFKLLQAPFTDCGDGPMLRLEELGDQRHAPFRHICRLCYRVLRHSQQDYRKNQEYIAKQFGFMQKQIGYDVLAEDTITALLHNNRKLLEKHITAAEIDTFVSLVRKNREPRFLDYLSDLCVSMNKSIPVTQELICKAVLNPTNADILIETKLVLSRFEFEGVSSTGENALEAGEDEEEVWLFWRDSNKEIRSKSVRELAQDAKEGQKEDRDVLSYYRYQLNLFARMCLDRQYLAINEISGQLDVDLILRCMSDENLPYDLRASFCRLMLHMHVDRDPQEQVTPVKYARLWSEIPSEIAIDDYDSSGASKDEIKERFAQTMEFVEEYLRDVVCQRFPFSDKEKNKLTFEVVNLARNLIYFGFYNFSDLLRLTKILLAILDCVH

A word on the Kd: it is a measure of binding affinity in units of concentration. Regarding `NCCCOP(=O)(O)O[C@@H]1[C@H](O)[C@H](O)[C@@H](OP(=O)(O)O)[C@H](OP(=O)(O)O)[C@H]1O` [Compound 1], in test [1], the dissociation constant (Kd) is 1.1 µM, the “binding of IBD to a Compound 1-immobilized tip” value (“binding of IBD” for short) was “inhibited” and the “affinity relative to that of IP3” value was “about ⅙”.

In the case of `CN(C)c1ccc(C(=C2C=CC(=[N+](C)C)C=C2)c2ccc(C(=O)NCCCOP(=O)(O)O[C@@H]3[C@H](O)[C@H](O)[C@@H](OP(=O)(O)O)[C@H](OP(=O)(O)O)[C@H]3O)cc2)cc1` [Compound 2b], in test [1], the “non-specific binding to the IP3 receptor in the competitive assay” value is recorded as “specifically bound to the IP3 receptor”, the Kd is 0.00117 µM, the “binding of IBD” value is reported as “inhibited” and the “affinity relative to that of IP3” value worked out at 167 fold. Besides, the “Ca2+ releasing activity induced by IP3, addition of compound only (no laser irradiation)” value in the test on IP3 receptor was “not reduced”. The “Ca2+ releasing activity induced by IP3, addition of compound and laser irradiation” value in the test with IP3 receptor (635 nm laser 3 minutes) is “remarkably reduced”.

For the molecule `O=P(O)(O)O[C@@H]1[C@H](O)[C@H](O)[C@@H](OP(=O)(O)O)[C@H](OP(=O)(O)O)[C@H]1O` [IP3, D-Myo-inositol-1,4,5-trisphosphate], in test [1], the equilibrium dissociation constant (Kd) is 0.195 µM and the “binding of IBD” value is given as “inhibited”.

As for carboxymalachite green, the “non-specific binding to the IP3 receptor in the competitive assay” value in test [1] is “non-specific binding was not observed”.

Source of the values: patent publication US6656927B1, “Ip3 receptor ligands” (Daiichi Pharmaceutical., Ltd., priority 1999, dated 2003).
